Where two headings read alike, the source gives them in different places.

For data set [1] the following is noted: oleyl alcohol/BFM, 30° C.
Excerpt: The aqueous and organic phases in each flask were separated by decantation.
Each data point corresponding to a specified level of electrolyte as shown in Table 3 and Table 4 was repeated twice and values for Kp reported as the average of the two flasks.
For data set [2] the following is noted: Example 3 fermentation, oleyl alcohol. Here is the method: Filter sterilized solutions of ampicillin, thiamine hydrochloride, and glucose were added to the fermentor medium, post sterilization, to a final concentration of 100 mg/L, 5 mg/L and 20 g/L respectively. Fermentations were run using a 1 L autoclavable bioreactor, Bio Console ADI 1025 (Applikon, Inc, Holland) with a working volume of 900 mL. The temperature was maintained at 30° C. during the entire fermentation and the pH was maintained at 6.8 using ammonium hydroxide. Following inoculation of the sterile fermentation medium with seed culture (2-10 vol %), the fermentor was operated aerobically at a 30% dissolved oxygen (DO) set point with 0.3 vvm of air flow by automatic control of the agitation rate (rpm). […] Four hours post induction, fermentation conditions were switched to microaerobic conditions by decreasing the airflow to 0.13 slpm and setting the DO set point to 3-5%. […] Glucose was added as a bolus (50 wt % stock solution) to the fermentor on a need basis to keep levels of glucose between 20 g/L and 2 g/L.
Glucose levels were monitored using HPLC and YSI as described above herein.

In a further data set the test system is 4KO E. coli strain. The note with it: for E. coli Growth Rate (μ): 4KO E. coli, BFM + betaine, 30° C.
The nature of data set [3]: Activity of enzyme expressed from sadB gene in cell-free extracts of Mach1/pTrc99a::sadB. The note with it: isobutyraldehyde as the standard. In kind it is biochemical, Achromobacter xylosoxidans. Here is the method: The sadB coding region was then cloned into the vector pTrc99a (Amann et al., Gene 69: 301-315, 1988). The pCR4Blunt::sadB was digested with EcoRI, releasing the sadB fragment, which was ligated with EcoRI-digested pTrc99a to generate pTrc99a::sadB. This plasmid was transformed into E. coli Mach 1 cells and the resulting transformant was named Mach1/pTrc99a::sadB. The activity of the enzyme expressed from the sadB gene in these cells was determined to be 3.5 mmol/min/mg protein in cell-free extracts when analyzed using isobutyraldehyde as the standard.

Description for 4KO E. coli strain: From a frozen vial, 25 mL of seed culture was grown in Difco LB broth, Miller medium, purchased from BD Laboratories (Becton & Dickinson and Company, Sparks, Md., 21152, USA) at 30° C., 200 RPM. […] Samples were withdrawn at defined time points to monitor biomass growth as measured by OD600. Growth rates were calculated from the biomass time profiles by fitting exponential growth rate equations.

On to Isobutanol, for which the Kp is on record as 4.80 in data set [1] (Na2SO4 added 0.00 moles/L, total salts 0.14 moles/L); 5.03 in data set [1] (Na2SO4 added 0.03 moles/L, total salts 0.17 moles/L); 5.25 in data set [1] (Na2SO4 added 0.07 moles/L, total salts 0.21 moles/L); 5.78 in data set [1] (Na2SO4 added 0.15 moles/L, total salts 0.29 moles/L); 6.37 in data set [1] (Na2SO4 added 0.22 moles/L, total salts 0.36 moles/L); 7.12 in data set [1] (Na2SO4 added 0.29 moles/L, total salts 0.43 moles/L). The Kp in data set [1] (Na2SO4 added 0.44 moles/L, total salts 0.58 moles/L) is 8.34; in data set [1] (Na2SO4 added 0.67 moles/L, total salts 0.81 moles/L) it was 10.50; in data set [1] (Na2SO4 added 1.00 moles/L, total salts 1.14 moles/L) it was 15.95; in data set [1] (Na2SO4 added 1.33 moles/L, total salts 1.47 moles/L), 24.68; in data set [1] (Na2SO4 added 2.00 moles/L, total salts 2.14 moles/L), 60.99; in data set [1] (NaCl added 0.00 moles/L, total salt 0.14 moles/L), 4.87. Moreover, the Kp stood at 4.87 in data set [1] (NaCl added 0.01 moles/L, total salt 0.15 moles/L); 4.89 in data set [1] (NaCl added 0.04 moles/L, total salt 0.18 moles/L); 4.95 in data set [1] (NaCl added 0.07 moles/L, total salt 0.21 moles/L); 5.00 in data set [1] (NaCl added 0.11 moles/L, total salt 0.25 moles/L); 5.00 in data set [1] (NaCl added 0.14 moles/L, total salt 0.28 moles/L); 5.22 in data set [1] (NaCl added 0.21 moles/L, total salt 0.35 moles/L). Moreover, the Kp is 5.04 in data set [1] (NaCl added 0.33 moles/L, total salt 0.47 moles/L); 5.91 in data set [1] (NaCl added 0.67 moles/L, total salt 0.81 moles/L); 6.88 in data set [1] (NaCl added 1.00 moles/L, total salt 1.14 moles/L); 8.06 in data set [1] (NaCl added 1.33 moles/L, total salt 1.47 moles/L). The “Kp [Conc in OA phase]/[Conc in Aq Phase]” value turned out to be 3.1 in data set [2] (Na2SO4 added 0 moles/L, total salts 0.05 moles/L); 4.5 in data set [2] (Na2SO4 added 0.28 moles/L, total salts 0.33 moles/L); 5.4 in data set [2] (Na2SO4 added 0.42 moles/L, total salts 0.47 moles/L).
For `O=S(=O)([O-])[O-].[Na+].[Na+]` [Na2SO4, Sodium sulfate], the “drop in growth rate” value with 4KO E. coli strain (1M salt concentration) is “greater than 80%”. Further, the “E. coli Growth Rate (μ)” value amounted to 0.79 h⁻¹ with 4KO E. coli strain (Na2SO4 added 0.03 mole/L, total salts 0.17 moles/L); 0.79 h⁻¹ with 4KO E. coli strain (Na2SO4 added 0.07 mole/L, total salts 0.21 moles/L); 0.79 h⁻¹ with 4KO E. coli strain (Na2SO4 added 0.15 mole/L, total salts 0.29 moles/L); 0.74 h⁻¹ in the data set with 4KO E. coli strain (Na2SO4 added 0.22 mole/L, total salts 0.36 moles/L); 0.69 h⁻¹ in the data set on 4KO E. coli strain (Na2SO4 added 0.29 mole/L, total salts 0.43 moles/L); 0.60 h⁻¹ in the data set with 4KO E. coli strain (Na2SO4 added 0.44 mole/L, total salts 0.58 moles/L). The “E. coli Growth Rate (μ)” value with 4KO E. coli strain (Na2SO4 added 0.67 mole/L, total salts 0.81 moles/L) was 0.55 h⁻¹; in the data set with 4KO E. coli strain (Na2SO4 added 1.00 mole/L, total salts 1.14 moles/L) it was 0.14 h⁻¹; in the data set on 4KO E. coli strain (Na2SO4 added 1.33 mole/L, total salts 1.47 moles/L), “Negligible growth”; in the data set on 4KO E. coli strain (Na2SO4 added 2.00 mole/L, total salts 2.14 moles/L), “Negligible Growth”. Besides, the “loss of growth rate compared to no electrolyte control” value in the data set with 4KO E. coli strain (about 0.67 M Na2SO4 (total salt level of 0.81 M)) was 30%.

B1: enzyme expressed from the sadB gene: butanol dehydrogenase from Achromobacter xylosoxidans (protein SEQ ID NO: 10) (protein)
chain: MKALVYHGDHKISLEDKPKPTLQKPTDVVVRVLKTTICGTDLGIYKGKNPEVADGRILGHEGVGVIEEVGESVTQFKKGDKVLISCVTSCGSCDYCKKQLYSHCRDGGWILGYMIDGVQAEYVRIPHADNSLYKIPQTIDDEIAVLLSDILPTGHEIGVQYGNVQPGDAVAIVGAGPVGMSVLLTAQFYSPSTIIVIDMDENRLQLAKELGATHTINSGTENVVEAVHRIAAEGVDVAIEAVGIPATWDICQEIVKPGAHIANVGVHGVKVDFEIQKLWIKNLTITTGLVNTNTTPMLMKVASTDKLPLKKMITHRFELAEIEHAYQVFLNGAKEKAMKIILSNAGAA
modifications: Achromobacter xyloxidans
As to B1, the “activity of the enzyme” value in data set [3] was found to be 3.5 mmol/min/mg protein.

The record behind these values is US8969055B2 (priority 2009, dated 2015).
